Legend:
[1] = test system: bone marrow-derived DCs (BMDCs); test: iNOS induction in bone marrow-derived dendritic cells in vitro; format: cell-based, mouse; details: cultured in the presence of RA (200 μM)
Method: Femurs and tibias from 8- to 10-week-old mice were harvested. BMDCs were derived as described (40). The cultured BMDC were collected on day 6 for further experiments. For Inf-MAC induction in vitro, bone marrow cells were cocultured with the presence of 200 μM RA. On day 6, indicated amount of IFN-γ was added directly to the culture. Cells were stained for iNOS and TNF-α after 24-36 hours and analyzed using flow cytometry.

[2] = test system: immune cells in non-irradiated tumors; test: Flow cytometric analysis of non-irradiated tumors in the two-tumor model; format: in vivo, mouse
From the text: Single cell suspensions were obtained as previously described (40). Cells were blocked with anti-Fc receptor (2.4 G2, BioXCell, Lebanon, New Hampshire, United States of America) and stained for live/dead with Zombie UV, followed staining using antibodies against CD45, CD4, CD8, NK1.1, CD11b, CD11c, Ly6C, Ly6G, F4/80, CD44, CD62L.
More CD8^+ T and CD4^+ T cells were also observed in the non-irradiated tumors when primary tumors received IR+RA treatment.

[3] = test system: MC38 tumor in Rag1−/− mice; details: ATRA 400 ug/each oral gavage daily plus X-ray 2 Gy/fraction, three consecutive days
Method: To further study whether T cell responses are important for the antitumor efficacy of ATRA (+) treatment, 2×10^6 MC38 cells were inoculated into the right flanks of Rag1^−/− […] mice, which are deficient of T and B cells. When the tumors reached 100-120 mm^3 in volume, Rag1^−/− mice were administered 400 ug/each ATRA daily via oral gavage followed by 2 Gy/fraction X-ray on three consecutive days. The tumor size was measured with a caliper every day and the tumor volume calculated as 0.5×length×width 2. All of the mice were sacrificed when the control group tumors reached about 2000 mm^3.

[4] = 8 days after IR+RA combination treatment

CC1=C(/C=C/C(C)=C/C=C/C(C)=C/C(=O)O)C(C)(C)CCC1 [RA, all-trans retinoic acid]
iNOS production in BMDCs [1]: increased significantly
PD-L1 expression on DCs in non-irradiated tumors ([2]; 3 days post IR+RA treatment): Increased
PD-L1 expression on tumor cells in non-irradiated tumors ([2]; 3 days post IR+RA treatment): Increased
CD11c+iNOS+ cells in non-irradiated tumor [2, 4]: increased
proportion of CD11b+ cells in non-irradiated tumors [2, 4]: significantly increased proportion
proportion of CD11b+CD11c+Ly6C+ cells in non-irradiated tumors [2, 4]: significantly increased proportion
CD4+ T cells in non-irradiated tumors ([2]; primary tumors received IR+RA): More
CD8+ T cells in non-irradiated tumors ([2]; primary tumors received IR+RA): More
Foxp3+CD4+ T cells in non-irradiated tumors ([2]; primary tumors received IR+RA): marked decrease
proportion of CD4+ IFN-γ+ cells in non-irradiated tumors ([2]; primary tumors received IR+RA): increased
proportion of CD8+ IFN-γ+ cells in non-irradiated tumors ([2]; primary tumors received IR+RA): increased
proportion of CD8+GzmB+ cells in non-irradiated tumors ([2]; primary tumors received IR+RA): increased
therapeutic effect on MC38 tumors in Rag1−/− mice [3]: did not show any therapeutic effect

Source: patent publication US20240000741A1, “ALL-TRANS RETINOIC ACID ENHANCES RADIOTHERAPY AND OVERCOMES IMMUNE SUPPRESSION FOR CANCER THERAPY” (The University of Chicago, priority 2022, published 2024)
